Test results: PubChem BioAssay AID1845215 (Molecular Pharmacology Branch, DTP, NCI, 2023)
pIC50: −log10 of the molar value. “And” between values parts separate entries of the source, which are not always exact repeats. Equal entries are not always repeated.

System: SW 1271 complex tumor spheroid viability
Experiment: Anticancer human tumor SW 1271 cell line growth inhibition;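 note: spheroids exposed to agents for seven days before readout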;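 for viability, T/C: percent of DMSO vehicle control luminescence so 100% = vehicle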
Conditions: for viability, T/C: stronger effect = lower value
Text: Multicellular complex tumor spheroid response to DNA repair inhibitors in combination with DNA-damaging drugs
This study explores the anticancer activities of DNA-damaging drugs and inhibitors of DNA damage repair, both as single agents and in combinations. Complex tumor spheroids comprised of malignant cells, endothelial cells and mesenchymal stem cells served as an in vitro model for human solid tumors. This model system incorporates physiologically relevant features and patient-derived or established malignant cell lines with clinically relevant genetic alterations from many tumor types. Twenty-six patient-derived or established malignant cell lines were evaluated representing sarcoma, melanoma, small cell lung cancer (SCLC), non-small cell lung cancer (NSCLC), as well as bladder, ovarian and pancreatic cancers. The concentration ranges selected for each drug and investigational agent were based upon clinically achievable concentrations if the clinical Cmax of the agent was known.
Compounds. The drugs and compounds olaparib (NSC753686), talazoparib (NSC767125), berzosertib (NSC777718), elimusertib (NSC800525), nedisertib (NSC802822), VX-984 (NSC792969), AZD-1390 (NSC803789), temozolomide (NSC362856), topotecan (NSC609699), trabectedin (NSC813783), staurosporine (NSC755774), and gemcitabine (NSC613327) were obtained from the National Cancer Institute (NCI) Developmental Therapeutics Program Chemical Repository. The FDA-approved anticancer drug set is available from the Developmental Therapeutics Program at https://dtp.cancer.gov/organization/dscb/obtaining/available_plates.htm. […] The stock solutions were prepared in dimethyl sulfoxide (DMSO, Sigma-Aldrich, St. Louis, MO, cat. D2650) at 400-fold the tested concentration and stored at -70 degrees C. Prior to their use, the stock solutions were diluted in fresh medium and the final DMSO concentration in the assay was 0.25% (v/v). All drugs and investigational agents were tested over a range starting from a high concentration at or near the clinical Cmax and decreasing in half-log increments. If the clinical Cmax for an agent had not been determined, the highest concentration tested was 10 microM.
Cell Lines. The patient-derived cancer cell (PDC) lines: 156681-154-R-J1-PDC, 283228-195-R-J1-PDC, 287954-098-R-J1-PDC, 292921-168-R-J2-PDC, 349418-098-R-PDC, 425362-245-T-J1-PDC, 556581-035-R-J1-PDC, and BL0293-F563-PDC were received from the NCI Patient-Derived Models Repository (PDMR, https://pdmr.cancer.gov). The established cell lines HS-SY-2 (RRID:CVCL_8719), MPNST, and SYO-1 (RRID:CVCL_7146) were obtained from the Sloan Kettering Institute. The alveolar soft parts sarcoma cell line ASPS-1 (RRID:CVCL_S738) was established at the NCI and grown from internal seed stocks. The following established cell lines were purchased from the American Type Culture Collection (ATCC, Manassas, VA): G-401 (ATCC, cat. CRL-1441, RRID:CVCL_0270), SW982 (ATCC, cat. HTB-93, RRID:CVCL_1734), VA-ES-BJ (ATCC, cat. CRL-2138, RRID:CVCL_1785), NCI-H719 (ATCC, cat. CRL-5837, RRID:CVCL_1582), NCI-H196 (ATCC, cat. CRL-5823, RRID:CVCL_1509), NCI-H841 (ATCC, cat. CRL-5845, RRID:CVCL_1595), NCI-H1618 (ATCC, cat. CRL-5879, RRID:CVCL_1480), NCI-H1876 (ATCC, cat. CRL-5902, RRID:CVCL_1503), DMS 114 (ATCC, cat. CRL-2066; RRID:CVCL_1174), NCI-H211 (ATCC, cat. CRL-5824; RRID:CVCL_1529), and SW 1271 (ATCC, cat. CRL-2177, RRID:CVCL_1716). The small cell lung cancer cell line COR-L88 was purchased from Sigma-Aldrich (cat. 92031917-1VL, RRID:CVCL_1141). The non-small cell lung cancer cell lines NCI-H226 (RRID:CVCL_1544) and NCI-H322M (RRID:CVCL_1557) were established at the NCI and grown from internal seed stocks. Pooled donor human umbilical vein endothelial cells (HUVEC, Lonza, cat. CC-2519) and human mesenchymal stem cells (hMSC, Lonza, cat. PT-2501) were purchased from Lonza (Walkersville, MD).
Cell Culture. All cells were maintained in an incubator at 37 degrees C and 5% CO2 with 95% humidity. […]

## Cn1ncnc1[C@H]1c2n[nH]c(=O)c3cc(F)cc(c23)N[C@@H]1c1ccc(F)cc1
Compound 0.00949 µM
  viability, T/C: 39.3% and 40% and 67.2%
Compound 0.03 µM
  viability, T/C: 31.9% and 32.7% and 44.5%
Compound 0.0949 µM
  viability, T/C: 21.2% and 24.7% and 35.2%
Compound 0.3 µM
  viability, T/C: 24.9% and 26.4% and 34.4%
Compound 0.949 µM
  viability, T/C: 25.2% and 26.3% and 30.4%
Compound 3 µM
  viability, T/C: 21.1% and 25.1% and 26.3%
Curve of compound
  pIC50: > 8.02 and 7.63

## Cc1sc2c(c1C)C(c1ccc(Cl)cc1)=NC(CC(=O)Nc1ccc(O)cc1)c1nnc(C)n1-2 (centres undefined)
Compound 0.00949 µM
  viability, T/C: 112% and 133% and 111%
Compound 0.03 µM
  viability, T/C: 98.6% and 108% and 112%
Compound 0.0949 µM
  viability, T/C: 38.7% and 40.3% and 67.7%
Compound 0.3 µM
  viability, T/C: 4.84% and 5.32% and 10.5%
Compound 0.949 µM
  viability, T/C: 1.98% and 1.57% and 1.36%
Compound 3 µM
  viability, T/C: 1.53% and 0.84% and 1.11%
Curve of compound
  pIC50: 7.12 and 7.10 and 6.87

## CC1COCCN1c1cc(-c2ccnn2C)c2ccnc(-c3ccn[nH]3)c2n1 (centres undefined) + Cn1nnc2c(C(N)=O)ncn2c1=O
Curve of first compound, second compound 1 µM
  pIC50: 7.17
Curve of first compound, second compound 3.16 µM
  pIC50: 7.15
Curve of first compound, second compound 10 µM
  pIC50: 7.17
Curve of first compound, second compound 31.6 µM
  pIC50: 7.42
Curve of first compound, second compound 100 µM
  pIC50: > 7.50
Second compound 1 µM, first compound 0.0316 µM
  viability, T/C: 71.4%
Second compound 1 µM, first compound 0.1 µM
  viability, T/C: 38.7%
Second compound 1 µM, first compound 0.316 µM
  viability, T/C: 15.1%
Second compound 1 µM, first compound 1 µM
  viability, T/C: 6.03%
Second compound 1 µM, first compound 3.16 µM
  viability, T/C: 3.67%
Second compound 1 µM, first compound 10 µM
  viability, T/C: 3.45%
Second compound 3.16 µM, first compound 0.0316 µM
  viability, T/C: 76.6%
Second compound 3.16 µM, first compound 0.1 µM
  viability, T/C: 38.2%
Second compound 3.16 µM, first compound 0.316 µM
  viability, T/C: 11.3%
Second compound 3.16 µM, first compound 1 µM
  viability, T/C: 5.45%
Second compound 3.16 µM, first compound 3.16 µM
  viability, T/C: 3.38%
Second compound 3.16 µM, first compound 10 µM
  viability, T/C: 2.94%
Second compound 10 µM, first compound 0.0316 µM
  viability, T/C: 73.8%
Second compound 10 µM, first compound 0.1 µM
  viability, T/C: 37.9%
Second compound 10 µM, first compound 0.316 µM
  viability, T/C: 12.3%
Second compound 10 µM, first compound 1 µM
  viability, T/C: 5.29%
Second compound 10 µM, first compound 3.16 µM
  viability, T/C: 2.98%
Second compound 10 µM, first compound 10 µM
  viability, T/C: 3.83%
Second compound 31.6 µM, first compound 0.0316 µM
  viability, T/C: 55.4%
Second compound 31.6 µM, first compound 0.1 µM
  viability, T/C: 23.2%
Second compound 31.6 µM, first compound 0.316 µM
  viability, T/C: 9.1%
Second compound 31.6 µM, first compound 1 µM
  viability, T/C: 4.96%
Second compound 31.6 µM, first compound 3.16 µM
  viability, T/C: 3.48%
Second compound 31.6 µM, first compound 10 µM
  viability, T/C: 3.25%
Second compound 100 µM, first compound 0.0316 µM
  viability, T/C: 33.5%
Second compound 100 µM, first compound 0.1 µM
  viability, T/C: 12.6%
Second compound 100 µM, first compound 0.316 µM
  viability, T/C: 6.3%
Second compound 100 µM, first compound 1 µM
  viability, T/C: 3.95%
Second compound 100 µM, first compound 3.16 µM
  viability, T/C: 3.48%
Second compound 100 µM, first compound 10 µM
  viability, T/C: 2.85%
